Laboratory results from the supplement of paper PMC11061612.

Assays:
[1] = test system: ME-1 (Acute Myeloid Leukemia); experiment: combination Emax (second highest fraction inhibited in the dose matrix, 72 h); higher = more inhibition; extreme values may be limits of the assay
Procedure, shortened: (§1)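 Cell lines grown in DMEM/F12 or RPMI with 10% FBS were plated in 1536-well plates and held 24 hours at 37°C, 5% CO2 before 72 hours of exposure to two-drug dose matrices, with DMSO typically at 0.2%. CellTiter-Glo 2.0 luminescence gave viability, which was converted to inhibition. Vehicle wells were set to 0 and blank wells to 1. Combination Emax is the second-highest inhibition in the matrix, and Bliss excess is the observed combination effect minus the expected EA + EB − EA·EB, where EA and EB are the single-agent effects.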

[2] = test system: UM-UC-3 (Bladder Carcinoma); experiment: as above
Procedure, shortened: as §1

[3] = test system: DEL (T-Cell Non-Hodgkin's Lymphoma); experiment: as above
Procedure, shortened: as §1

[4] = test system: OVCA420 (Ovarian Carcinoma); experiment: as above
Procedure, shortened: as §1

[5] = test system: TE-9 (Esophageal Squamous Cell Carcinoma); experiment: as above
Procedure, shortened: as §1

[6] = test system: EC-GI-10 (Esophageal Squamous Cell Carcinoma); experiment: as above
Procedure, shortened: as §1

[7] = test system: NCI-H1869 (Non-Small Cell Lung Carcinoma); experiment: as above
Procedure, shortened: as §1

[8] = test system: MFE-296 (Endometrial Carcinoma); experiment: as above
Procedure, shortened: as §1

[9] = test system: RC-K8 (B-Cell Non-Hodgkin's Lymphoma); experiment: as above
Procedure, shortened: as §1

[10] = test system: HCC1806 (Breast Carcinoma); experiment: as above
Procedure, shortened: as §1

NB10 (Neuroblastoma) = experiment: as above
Procedure, shortened: as §1

T98G (Glioblastoma) = experiment: as above
Procedure, shortened: as §1

[11] = test system: Calu-3 (Lung Adenocarcinoma); experiment: as above
Procedure, shortened: as §1

[12] = test system: NCI-H1869 (Non-Small Cell Lung Carcinoma); experiment: Bliss excess, mean over the matrix (fraction); higher = more synergy
Procedure, shortened: as §1
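For Bliss excess, mean over the matrix in this document: after 72 h of two-drug dosing.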

Row | Compound | combination Emax [1] | combination Emax [2] | combination Emax [3] | combination Emax [4] | combination Emax [5] | combination Emax [6] | combination Emax [7] | combination Emax [8] | combination Emax [9] | combination Emax [10] | combination Emax (NB10 (Neuroblastoma)) | combination Emax (T98G (Glioblastoma)) | combination Emax [11] | Bliss excess [12]
1 | CN(C)CCCOc1ccc(-c2ccc3ncc4c(c3c2)n(C2CCOCC2)c(=O)n4C)cn1 [AZD0156] + O=C(c1cc(Cc2n[nH]c(=O)c3ccccc23)ccc1F)N1CCN(C(=O)C2CC2)CC1 [Olaparib] (first compound max 3 µM, partner max 3 µM) | 0.224 | 0.289 | 0.78 | 0.23 | 0.353 | 0.436 | 0.19 | 0.228 | 0.318 | 0.479 | 0.593 | 0.287 | 0.184 | -0.0306
2 | C=CCn1c(=O)c2cnc(Nc3ccc(N4CCN(C)CC4)cc3)nc2n1-c1cccc(C(C)(C)O)n1 [AZD1775] + C1CN(CCC1(C(=O)N[C@@H](CCO)C2=CC=C(C=C2)Cl)N)C3=NC=NC4=C3C=CN4 [Capivasertib] (first compound max 3 µM, partner max 3 µM) | 0.685 | 0.464 | 1 | 0.59 | 0.816 | 0.965 | 0.388 | 0.561 | 0.652 | 0.933 | 0.892 | 0.785 | 0.466 | 0.0342
3 | CC1(C)CCC(CN2CCN(c3ccc(C(=O)NS(=O)(=O)c4ccc(NCC5CCOCC5)c([N+](=O)[O-])c4)c(Oc4cnc5[nH]ccc5c4)c3)CC2)=C(c2ccc(Cl)cc2)C1 [Venetoclax] + C1CN(CCC1(C(=O)N[C@@H](CCO)C2=CC=C(C=C2)Cl)N)C3=NC=NC4=C3C=CN4 [Capivasertib] (first compound max 1 µM, 7x7, partner max 3 µM) | 1 | 0.272 | 0.295 | 0.146 | 0.192 | 0.426 |  | 0.37 | 0.333 | 0.231 | 0.139 | 0.326 | 0.174 | 
4 | CC1(C)CCC(CN2CCN(c3ccc(C(=O)NS(=O)(=O)c4ccc(NCC5CCOCC5)c([N+](=O)[O-])c4)c(Oc4cnc5[nH]ccc5c4)c3)CC2)=C(c2ccc(Cl)cc2)C1 [Venetoclax] + C=CCn1c(=O)c2cnc(Nc3ccc(N4CCN(C)CC4)cc3)nc2n1-c1cccc(C(C)(C)O)n1 [AZD1775] (first compound max 1 µM, partner max 1 µM) | 1 | 0.294 | 1 | 0.384 | 0.691 | 0.903 |  | 0.3 | 0.815 | 0.912 | 0.865 | 0.889 | 0.218 | 
5 | CC1(C)CCC(CN2CCN(c3ccc(C(=O)NS(=O)(=O)c4ccc(NCC5CCOCC5)c([N+](=O)[O-])c4)c(Oc4cnc5[nH]ccc5c4)c3)CC2)=C(c2ccc(Cl)cc2)C1 [Venetoclax] + CCN(CCO)CCCOc1ccc2c(Nc3cc(CC(=O)Nc4cccc(F)c4)[nH]n3)ncnc2c1 [AZD2811] (first compound max 1 µM, 7x7, partner max 1 µM) | 1 | 0.16 | 0.754 | 0.188 | 0.154 | 0.308 |  | 0.124 | 0.423 | 0.212 | 0.5 | 0.394 | 0.175 | 
6 | CC1(C)CCC(CN2CCN(c3ccc(C(=O)NS(=O)(=O)c4ccc(NCC5CCOCC5)c([N+](=O)[O-])c4)c(Oc4cnc5[nH]ccc5c4)c3)CC2)=C(c2ccc(Cl)cc2)C1 [Venetoclax] + CN(C)CCCOc1ccc(-c2ccc3ncc4c(c3c2)n(C2CCOCC2)c(=O)n4C)cn1 [AZD0156] (first compound max 1 µM, 7x7, partner max 1 µM) | 1 | 0.252 | 0.192 | 0.178 | 0.141 | 0.221 |  | 0.144 | 0.316 | 0.139 | 0.538 | 0.332 | 0.121 | 
7 | CC1(C)CCC(CN2CCN(c3ccc(C(=O)NS(=O)(=O)c4ccc(NCC5CCOCC5)c([N+](=O)[O-])c4)c(Oc4cnc5[nH]ccc5c4)c3)CC2)=C(c2ccc(Cl)cc2)C1 [Venetoclax] + COc1cc(Nc2ncc3c(n2)-c2ccc(Cl)cc2C(c2c(F)cccc2OC)=NC3)ccc1C(=O)O [Alisertib] (first compound max 1 µM, 7x7, partner max 10 µM) | 1 | 0.399 | 1 | 0.326 | 0.369 | 0.554 |  | 0.225 | 0.585 | 0.278 | 0.995 | 0.556 | 0.171 | 
8 | CC1(C)CCC(CN2CCN(c3ccc(C(=O)NS(=O)(=O)c4ccc(NCC5CCOCC5)c([N+](=O)[O-])c4)c(Oc4cnc5[nH]ccc5c4)c3)CC2)=C(c2ccc(Cl)cc2)C1 [Venetoclax] + C[C@@H]1COCCN1C2=NC(=NC(=C2)C3(CC3)[S@](=N)(=O)C)C4=C5C=CNC5=NC=C4 [AZD6738] (first compound max 1 µM, 7x7, partner max 10 µM) | 1 | 0.538 | 0.996 | 0.493 | 0.274 | 0.608 |  | 0.387 | 0.837 | 0.938 | 0.849 | 0.889 | 0.265 | 
9 | CC1(C)CCC(CN2CCN(c3ccc(C(=O)NS(=O)(=O)c4ccc(NCC5CCOCC5)c([N+](=O)[O-])c4)c(Oc4cnc5[nH]ccc5c4)c3)CC2)=C(c2ccc(Cl)cc2)C1 [Venetoclax] + C[C@@H](Nc1cc(F)cc(F)c1)c1cc(C(=O)N(C)C)cc2c(=O)cc(N3CCOCC3)oc12 [AZD8186] (first compound max 1 µM, 7x7, partner max 3 µM) | 1 | 0.164 | 0.312 | 0.165 | 0.129 | 0.131 |  | 0.0282 | 0.281 | 0.0952 | 0.24 | 0.411 | 0.0911 | 
10 | CC1(C)CCC(CN2CCN(c3ccc(C(=O)NS(=O)(=O)c4ccc(NCC5CCOCC5)c([N+](=O)[O-])c4)c(Oc4cnc5[nH]ccc5c4)c3)CC2)=C(c2ccc(Cl)cc2)C1 [Venetoclax] + Cc1cc2ncnn2cc1Nc1ncc2c(n1)n(C1CCOCC1)c(=O)n2C [AZD7648] (first compound max 1 µM, 7x7, partner max 10 µM) | 1 | 0.139 | 0.457 | 0.223 | 0.154 | 0.436 |  | 0.147 | 0.496 | 0.172 | 0.246 | 0.352 | 0.155 | 
11 | CC1(C)CCC(CN2CCN(c3ccc(C(=O)NS(=O)(=O)c4ccc(NCC5CCOCC5)c([N+](=O)[O-])c4)c(Oc4cnc5[nH]ccc5c4)c3)CC2)=C(c2ccc(Cl)cc2)C1 [Venetoclax] + Cn1cnc2c(F)c(Nc3ccc(Br)cc3Cl)c(C(=O)NOCCO)cc21 [Selumetinib] (first compound max 1 µM, 7x7, partner max 3 µM) | 1 | 0.189 | 0.382 | 0.403 | 0.0846 | 0.313 |  | 0.0803 | 0.227 | 0.359 | 0.381 | 0.163 | 0.071 | 
